According to patent publication US10233151B2, “Use of a novel 3-aryl-4-catechol-pyrrole-N-propanol compound and the derivatives thereof to treat cancer and diseases related to excessive angiogenesis” (Centre National de la Recherche Scientifique (CNRS), priority 2014, dated 2019):
Like-named read-outs stand apart in the source and are kept apart here.

System: HCT-116 cells
Experiment: Cell growth test (CellTiter-Blue), HCT-116
Assay type: cell-based
Conditions: for cytotoxic effect relative to compound (1): 72 hours; for IC50: Homo sapiens, HCT-116, 48 h, 48 hours, read-out: IC50, cytotoxic effect
Procedure: The biological activity of compound (1), as well as that of its structural analogues, was studied in vitro on 7 different cancer cell lines: • HCT-116 (colorectal cancer) • U87 (glioblastoma) • K562 (myeloid leukemia) and K562 R • MDA-MB 231 (mammary adenocarcinoma) • MCF-7 (mammary adenocarcinoma) • A549 (pulmonary alveolar adenocarcinoma)
The cells selected for this study were incubated at 37° C. in the presence of compound (1) added in the culture medium at various concentrations and at various times. The set of experiments carried out made it possible to determine the degree of cytotoxicity of the compound tested (IC50), its capacity to induce cell death by apoptosis, in close dependence on extracellular superoxide anion for its activation. […]

## OCCCn1cc(-c2ccccc2)c(-c2ccc3c(c2)OCCO3)c1 [(2), 3-(3-(2,3-dihydrobenzo[b][1,4]dioxin-6-yl)-4-phenyl-1H-pyrrole-1-yl)propan-1-ol]
HCT-116, normoxia
  cytotoxic effect relative to compound (1): loss of cytotoxicity

## OCCCn1cc(-c2ccccc2)c(-c2ccccc2)c1 [(3), 3-(3,4-Diphenyl-1H-pyrrol)propan-1-ol]
HCT-116, normoxia
  cytotoxic effect relative to compound (1): loss of cytotoxicity

## O=C1C=C(c2cn(CCCO)cc2-c2ccccc2)C=C(C2=C(O)C(c3cn(CCCO)cc3-c3ccccc3)=CC(O)C2O)C1=O (centres unmarked) [dimer MH+ 631]
HCT-116, hypoxia (2% O2)
  IC50: 10 µM
HCT-116, normoxia
  IC50: 7.5 µM

## CCOCCCn1cc(-c2ccccc2)c(-c2ccc(O)c(O)c2)c1 [(4), 4-(1-(3-Ethoxypropyl)-4-phenyl-1H-pyrrole-3-yl)benzene-1,2-diol]
HCT-116, normoxia
  cytotoxic effect relative to compound (1): does not substantially change the IC50 value
